From patent US20220090021A1, “IN VITRO HUMAN BLOOD BRAIN BARRIER” (Massachusetts Institute of Technology, priority 2019, published 2022)

Legend:
iBBB [1] = assay: Amyloid (Aβ-FITC) accumulation in iBBB; assay type: cell-based, human; details: APOE3/3 iBBB; APOE raised to approximately 200 ng/ml, E3 or E4; labeled Aβ for 96 hours
Experimental: (§1) Amyloid accumulation was determined using both neuronal cell conditioned media and 20 nM recombinant labeled Hilyte fluor 488 β-amyloid (1-40) (Anaspec, AS-60491-01) and β-amyloid (1-42) (Anaspec, AS-60479-01) resuspended in PBS. Aβ accumulation for each cell line and experimental permutation was determined from 2D cultures containing all three cells types containing same ratio of cells as 3D experiments. Total area positive for Aβ was divided by the total number of nuclei and normalized to experimental controls. At least four images for each biological replicate were analyzed and for each condition at least three biological replicates were employed. 2D quantifications were corroborated by 3D imaging and analysis.

iBBB [2] = test system: iBBB
From the text: To more fully assess the barrier properties of the iBBB we compared the paracellular permeability of molecules with molecular weights ranging from 0.1 to 80 kDa. […] To rule out the possibility that the reduced permeability of the iBBB was simply the result of additional layers of cells, we layered on top of BECs double the normal number of pericyte-only, astrocytes-only or a non-relevant cell type, mouse embryonic fibroblasts (MEFs).
The genotype distinction between APOE4/4 cells (isogenic) and APOE3/3 (parental) was assessed in terms of permeability of an iBBB membrane. FIG. 13A presents a schematic showing the iBBB with fluorescent molecules positioned on the Apical surface, which are then allowed to transition through the iBBB from the Apical surface to the Basolateral surface (FIG. 13B).

E3/3 iBBB = assay: Amyloid accumulation in E3/3 iBBB exposed to conditioned media from inhibitor-treated E4/4 pericytes; assay type: cell-based, human; details: media harvested from inhibitor-treated E4/4 pericytes, versus DMSO
Experimental: as §1
We then added 20 nM Aβ1-40/42-FITC to the cultures for an additional 48 hours after which we quantified the accumulation of AP-FITC for each condition.

APOE = APOE gene expression in iPSC-derived pericytes after two weeks of CaN inhibition (qRT-PCR); assay type: cell-based, human
Experimental: Total RNA was isolated using Trizol and zymogen RNA-direct spin column treated with DNAse on column of 30 minutes prior to washing and elution. For RT-PCRs, 500 ng of total RNA was reverse transcribed into cDNA with iScript (BioRad). Expression was quantified by SsoFast EvaGreen supermix (BioRad). For RNAsequencing, extracted total RNA was subject to QC using an Advanced Analytical-fragment Analyzer before library preparation using Illumina Neoprep stranded RNA-seq library preparation kit. Libraries were pooled for sequencing using Illumina HiSeq2000 or NextSeq500 platforms at the MIT Biomicro Center. The raw fastq data were aligned to human hg19 assembly using STAR 2.4.0 RNA-seq aligner. Mapped RNA-seq reads covering the edited APOE3/4 site were used to validate data genotypes. Gene raw counts were generated from the mapped data using feature Counts tool. The mapped reads were also processed by Cufflinks2.2 with hg19 reference gene annotation to estimate transcript abundances. Gene differential expression test between APOE3 and APOE4 groups of each cell type was performed using Cuffdiff module with adjusted q-value <0.05 for statistical significance. Geometric method was chosen as the library normalization method for Cuffdiff. Color-coded scatterplots were used to visualize group FPKM values for differentially expressed genes and other genes.

recombinant human APOE protein: recombinant human APOE protein (E3 or E4) added to iBBB culture media
Aβ accumulation (iBBB [1]): increase

transferrin: fluorescently labeled Transferrin (ThermoFisher T-13342), permeability tracer
permeability and accumulation on the Basolateral surface, APOE4/4 iBBB versus parental APOE3/3 iBBB (iBBB [2]): greater permeability

O=C1C=CC(=O)C2=C1C1c3ccccc3C2c2ccccc21 [INCA6]
amyloid accumulation (E3/3 iBBB): significantly reduced
APOE expression (APOE; APOE4/4 pericytes, two weeks, CsA 2 μM, FK506 5 μM, INCA6 5 μM, qRT-PCR): significantly reduced
expression of APOE (APOE; E3/4 heterozygous pericytes from three individuals): significant reduction

Aβ42-FITC: FITC-labeled amyloid-β 1-42 peptide
permeability and accumulation on the Basolateral surface, APOE4/4 iBBB versus parental APOE3/3 iBBB (iBBB [2]): greater permeability
